Data reported in patent publication US7050620B2, “Method of assaying shape and structural features in cells” (priority 2001, dated 2006).
Entries after “also recorded” stand apart in the source; their conditions may differ.

Columns and labels:
IAR20 PC1 cells [1] = test: Factor-based classification of cell shape phenotype from interference contours (predicted time in culture); parameters: species or system rat; details: for shift of signature-type (mean predicted time) versus control, in words / mean predicted time (signature-type, factor-based classification): 2 hr exposure; for shift of signature-type (mean predicted time) versus control, in words: taxanes 6–18 μM, baccatin III 9 μM, colchicine 2 μM; for factors used in classification whose values changed significantly: 2 h exposure; for mean predicted time (signature-type, factor-based classification): FIG. 1 experiment, 2 μM colchicine, 18 μM paclitaxel, 10 μM valinomycin, 0.5 μM gramicidin D, 200 μM quinidine, control 283 days; for factor #4 value (filopodia / sharp projections at cell edge) / factor #7 value (knob-like structures at the cell edge) / factor #8 value (sharp features in the second contour): versus control; for factor #12 value (slope at which cell rises from substratum, rounding-up): versus control / direction relative to signature-type; for factor #8 value (sharp features in the second contour): monensin 24 μM
Protocol: (§1) Cell lines and interference preparations. Equations were developed to define changes in the signature-type for two epithelial cell lines that underwent transformation over a prolonged time of in vivo culture. […] IAR20 PC1 was a clonal derivative of a line called IAR20, which was cultured from liver cells of a BD-VI rat. […] Liver cells were grown in William's E medium supplemented with 10% fetal bovine serum, whereas the tracheal cells were grown in Waymouth's medium containing fetal bovine serum plus 0.1 μg/ml insulin and 0.1 μg /ml hydrocortisone. The cells were maintained and subcultured as described elsewhere (1,3). For experiments with insulin supplementation, insulin concentrations were raised to 1 and 10 μg/ml and maintained for two passages before the cells were used.
(§2) Information about shape features was derived from interference images. These were generated by culturing cells on anodized tantalum substrates, and then imaging them in reflected light. Cells were plated on substrates in replicate dishes, left overnight, and then exposed to experimental agents or to the solvent vehicle alone. After incubation with the agents for 2–5 h, samples were recovered, fixed in buffered 3% glutaraldehyde (pH 7.3), and air-dried. Randomly selected cells were imaged in a Zeiss Universal microscope, and the outlines of their three lowermost interference contours were digitized. […] Each experimental treatment was represented by a total of 50 cells.
(§3) Classification procedures. The classification methods employed a subset of the contour shape variables. Each 50-cell sample was submitted to multiple linear regression analysis for classification alongside a group of cells representing normal and transformed reference samples. The latter were obtained from the lines that underwent transformation as described above. Because the signature-type value was assigned relative to these samples, the solutions were in units of predicted time in culture. After obtaining such a value for each cell in an experiment, the differences in mean predicted times for treated and control cells were calculated. The sum of the squared standard deviations, divided by the number of observations, n, was used to compute the confidence limits of the mean: (s1)^2/n+(s2)^2/n Where s was the standard deviation for each sample. Dividing the difference between the means by the square root of the above expression yields a value that can be related to the degree of confidence, 1-α. […] This value was equivalent to a probability that the two samples differed of P≦0.02.
(§4) Again, classification of samples from experiments employed multiple linear regression methods, based on factors scores rather than on contour shape variables. Factors were generated by combining into a single database, the contour shape variables from highly malignant epithelial cells and precancerous lines that change progressively, eventually become neoplastic. […] Principal components were extracted and transformed by a pattern of rotation to produce latent factors, which described variances that had thereby been rendered orthogonal (8). Factor scores for each cell represented in the database to be estimated. These factor scores from known IAR20 PC1 or 1000 W cells are used as a reference to classify data from short-term experiments on the respective samples. The factors used in classification were selected by the SAS REG procedure (8). […] Predicted time-in-culture values were obtained by submitting the experimental cells to analysis, as described above for simple variables. The statistical significance of differences among sample means within each experiment was determined by the Duncan multiple range test.

1000 W cells = test: as above; parameters: species or system rat; details: for predicted time (factor-based classification): time zero 612 days; for number of the eight contour shape variables highly correlated with factor #4 that changed significantly: 1000 W cells, FIG. 7—Table 3; for change of signature-type versus control, in words: paclitaxel 2-h or 5 h exposure, insulin 0.1–10 μg/ml
Protocol: as §1, with “Equations were developed to define changes in the signature-type for two epithelial cell lines that underwent transformation over a prolonged time of in vivo culture.” left out
as §2, with “After incubation with the agents for 2–5 h, samples were recovered, fixed in buffered 3% glutaraldehyde (pH 7.3), and air-dried.” left out
as §3, §4

IAR20 PC1 cells [2] = test: Indirect immunofluorescence localization of beta-tubulin (microtubule organization); type: cell-based, rat; details: for MT organization / arrangement, in words: exposure 2–5 h; for cells with MT bundles on both sides of the nucleus: taxane alone or IC with 2 μM colchicine
Protocol: Immunofluorescene localization of β-tubulin. IAR20 PC1 cells were subcultured onto sterile glass cover slips as described above. Replicate samples were exposed to test agents for 2–5 h alongside controls, and then fixed and left in methanol at −70° C. until used for the immunofluorescence procedure. To visualize arrays of MTs, cells were exposed to a mouse monoclonal anti-β tubulin antibody (Nycomed Amersham, Little Chalfont, Buckinghamshire, UK), made up at a 1:300 dilution. We used a 1:100 dilution of P3×63 monoclonal antibody from P3 myeloma (generous gift from J. Lessard) as a non-specific control. The secondary antibody, […] goat anti-mouse immunoglobulin G (US Biochemical Corp., Cleveland), was used at a dilution of 1:2000. Cover slips were processed and then mounted on a slide in a solution of 1,4-diazobicyclo[2.2.2]octane (Sigma) made up to 25 mg/ml in glycerol. The samples were photographed on a Zeiss Axiophot microscope equipped with a 63x Planapo lens. Images were recorded on Kodak Tri-X or T-Max film. All of the drugs, including paclitaxel, cephalomannine, colchicine, and baccatin III, were studied to see if they affected the arrangement of MTs. […] MT arrangement was unaltered after treatment with the above-mentioned ionophores and transport inhibitors.

IAR20 PC1 cells [3] = test: Uptake of fluid-phase marker horseradish peroxidase; type: cell-based, rat; details: monensin treatment

## CC(=O)O[C@H]1C(=O)[C@]2(C)CC[C@H]3OC[C@@]3(OC(C)=O)[C@H]2[C@H](OC(=O)c2ccccc2)[C@]2(O)C[C@H](OC(=O)[C@H](O)[C@@H](NC(=O)c3ccccc3)c3ccccc3)C(C)=C1C2(C)C [7-deoxytaxol]
IAR20 PC1 cells [1]
  shift of signature-type (mean predicted time) versus control, in words: failed to shift

## CCCCCCCCCCCCCC(=O)O[C@@H]1[C@@H](C)[C@@]2(O)[C@@H](C=C(CO)C[C@]3(O)C(=O)C(C)=C[C@@H]23)[C@@H]2C(C)(C)[C@]12OC(C)=O [PMA, phorbol 12-myristate 13-acetate]
1000 W cells; 30 min after PMA exposure
  predicted time (factor-based classification): 648 days
1000 W cells; 2 h after PMA exposure
  predicted time (factor-based classification): 663 days
1000 W cells; 5 h after PMA exposure
  predicted time (factor-based classification): 668 days
1000 W cells; 10 h after PMA exposure
  predicted time (factor-based classification): 604 days
1000 W cells; PMA time course
  factor #1 value: significantly elevated for a brief period after exposure
1000 W cells; PMA, 10-h time point
  factor #2 value: significantly reduced below control
1000 W cells; PMA, one experiment
  factor #7 value (knob-shaped projections on the cell edge): adopted values like those of transformed cells
  factor #16 value (size variability in projections at the cell edge): adopted values like those of transformed cells
1000 W cells; PMA, times between 0.5 and 5 h
  factor #4 value: indistinguishable from those of control samples
  factor #12 value: indistinguishable from those of control samples

## CC(=O)O[C@H]1C(=O)[C@@]2(C)[C@H]([C@H](OC(=O)c3ccccc3)[C@]3(O)C[C@H](O)C(C)=C1C3(C)C)[C@]1(OC(C)=O)CO[C@@H]1C[C@@H]2O [baccatin III, Baccatin III]
IAR20 PC1 cells [1]
  shift of signature-type (mean predicted time) versus control, in words: failed to shift
IAR20 PC1 cells [2]
  MT organization / arrangement, in words: little noticeable effect

## C/C=C(\C)C(=O)N[C@@H](c1ccccc1)[C@@H](O)C(=O)O[C@H]1C[C@@]2(O)[C@@H](OC(=O)c3ccccc3)[C@@H]3[C@]4(OC(C)=O)CO[C@@H]4C[C@H](O)[C@@]3(C)C(=O)[C@H](OC(C)=O)C(=C1C)C2(C)C [cephalomannine]
IAR20 PC1 cells [1]
  shift of signature-type (mean predicted time) versus control, in words: failed to shift
IAR20 PC1 cells [2]
  MT organization / arrangement, in words: caused MTs to aggregate in the form of arc-shaped bundles
  cells with MT bundles on both sides of the nucleus: 71%

## CCN(CC)CCCC(C)Nc1ccnc2cc(Cl)ccc12 (stereo not shown) [chloroquine]
IAR20 PC1 cells [1]
  factors used in classification whose values changed significantly: did not significantly change any of the factors
  mean predicted time (signature-type, factor-based classification): 315 days

## COc1cc2c(c(OC)c1OC)-c1ccc(OC)c(=O)cc1[C@@H](NC(C)=O)CC2 [colchicine]
IAR20 PC1 cells [1]
  mean predicted time (signature-type, factor-based classification): 338 days
  factor #4 value (filopodia / sharp projections at cell edge): decreased
  factor #7 value (knob-like structures at the cell edge): increased
  factor #12 value (slope at which cell rises from substratum, rounding-up): mimicked; also recorded: increased
1000 W cells; 2 μM colchicine for 2 hrs, cells grown in 0.1 μg/ml insulin, untreated 655 days
  mean predicted time: 737 days
1000 W cells; 2 μM colchicine for 2 hrs, cells grown in 1 μg/ml insulin, untreated 638 days
  mean predicted time: 687 days
1000 W cells; 2 μM colchicine for 2 hrs, cells grown in 10 μg/ml insulin, untreated 637 days
  mean predicted time: 673 days
1000 W cells; colchicine exposure
  factor #1 value (massive extensions or invaginations in the two uppermost contours): increased
1000 W cells; second experiment, colchicine-treated sample, control 636 days
  average solution of predicted time: 689 days
IAR20 PC1 cells [2]
  MT organization / arrangement, in words: complete depolymerization of MTs

## CC[C@@]1([C@@H]2O[C@@H]([C@H]3O[C@@](O)(CO)[C@H](C)C[C@@H]3C)C[C@@H]2C)CC[C@H]([C@]2(C)CC[C@]3(C[C@H](O)[C@@H](C)[C@@H]([C@@H](C)[C@@H](OC)[C@H](C)C(=O)O)O3)O2)O1 [monensin]
IAR20 PC1 cells [1]; 24 μM monensin alone or together with 50 μM ouabain, control 318 days
  average predicted time (factor-based classification): 344 days
IAR20 PC1 cells [1]
  factor #4 value (filopodia / sharp projections at cell edge): change in factor #4
  factor #8 value (sharp features in the second contour): affected
IAR20 PC1 cells [3]
  time after initial exposure by which horseradish peroxidase uptake was inhibited: ≤ 30 min

## CC(=O)O[C@H]1C(=O)[C@@]2(C)[C@H]([C@H](OC(=O)c3ccccc3)[C@]3(O)C[C@H](OC(=O)[C@H](O)[C@@H](NC(=O)c4ccccc4)c4ccccc4)C(C)=C1C3(C)C)[C@]1(OC(C)=O)CO[C@@H]1C[C@@H]2O [paclitaxel]
IAR20 PC1 cells [1]
  factors used in classification whose values changed significantly: changes in factors #1, #7, and #12
  shift of signature-type (mean predicted time) versus control, in words: failed to promote the signature-type
  mean predicted time (signature-type, factor-based classification): 304 days
  factor #12 value (slope at which cell rises from substratum, rounding-up): counteracted
IAR20 PC1 cells [1]; paclitaxel at a high concentration over a 4-h period
  factors whose values changed: changes in #1, #7, #8, and #13
1000 W cells
  number of the eight contour shape variables highly correlated with factor #4 that changed significantly: six of their values differed significantly
  change of signature-type versus control, in words: failed to elicit any change
1000 W cells; listed as Paclitaxel
  number of the eight contour shape variables highly correlated with factor #4 that changed significantly: six out of the eight
IAR20 PC1 cells [2]
  MT organization / arrangement, in words: large bundles of MTs
  cells with MT bundles on both sides of the nucleus: 56%

## CC(C)[C@@H]1NC(=O)[C@H](C)OC(=O)[C@@H](C(C)C)NC(=O)[C@@H](C(C)C)OC(=O)[C@H](C(C)C)NC(=O)[C@H](C)OC(=O)[C@@H](C(C)C)NC(=O)[C@@H](C(C)C)OC(=O)[C@H](C(C)C)NC(=O)[C@H](C)OC(=O)[C@@H](C(C)C)NC(=O)[C@@H](C(C)C)OC1=O [valinomycin]
IAR20 PC1 cells [1]
  mean predicted time (signature-type, factor-based classification): 336 days
  factor #4 value (filopodia / sharp projections at cell edge): change in factor #4
  factor #8 value (sharp features in the second contour): affected

## gramicidin D
IAR20 PC1 cells [1]
  mean predicted time (signature-type, factor-based classification): 387 days
  factor #4 value (filopodia / sharp projections at cell edge): change in factor #4
  factor #7 value (knob-like structures at the cell edge): increase

## insulin
1000 W cells; grown in 0.1 μg/ml insulin, no colchicine
  mean predicted time: 655 days
1000 W cells; grown in 1 μg/ml insulin, no colchicine
  mean predicted time: 638 days
1000 W cells; grown in 10 μg/ml insulin, no colchicine
  mean predicted time: 637 days
1000 W cells
  change of signature-type versus control, in words: no significant differences
